Test results published in US20140255471A1, “METHOD OF TREATING BRAIN TUMORS” (Wake Forest University Health Sciences, priority 2013, published 2014).
pIC50: −log10 of the molar value. Read-outs that look alike come from different tables or passages of the source.

What was measured:
[1] = test system: U138 cells; assay: Radiosensitization of U138 cells (clonogenic, 6 Gy); format: cell-based, human; conditions: FdUMP[10] and AZD7762 given before irradiation
Method: FIG. 9. Treating human glioma U138 cells with FdUMP[10] and AZD7726 enhanced their radiosensitivity. 500-2000 U138 cells were seeded into 60 mm dishes and treated with 1 nM FdUMP[10] (F1) for 9 h and 10 nM AZD7726 (A2) for 1 h prior to irradiation with a single dose of 6 Gy. Cells were fixed and stained with violet blue and colonies were counted using a colony counter at 10 days post-treatment. The study indicates combined treatment U138 with FdUMP[10] and AZD7762 sensitize cells to radiation.
Radiation is cytotoxic as a consequence of unrepaired DNA damage. […] In these studies, FdUMP[10] was administered […] prior to irradiation and AZD7762 1 h prior to radiation. Though not wishing to be bound by theory, it is thought that radiosensitization results from induction of a thymineless state following FdUMP[10] treatment and disabling of HRR and abrogation of the G2 checkpoint following AZD7762 treatment. Under these conditions, DNA repair of radiation-induced DNA damage is inhibited due to lack of thymidine while inhibiting Rad51 activation prevents HRR which is important for repair of radiation-induced DNA DSBs (Helleday 2010). Abrogating the G2-checkpoint causes cells to enter mitosis with lethally-damaged DNA enhancing the cytotoxic effects of radiation.

[2] = test system: U138 cells; assay: Flow cytometry of DNA content and cleaved caspase 3 in U138 cells; format: cell-based, human
Method: U138 cells were treated with 1 nM FdUMP[10] and/or 10 nM of AZD7762 for 9 or 1 h, respectively, prior to irradiation with a single dose of 6 Gy. Cells were harvested 24 h post-irradiation and analyzed for DNA content (A) and cleaved caspase 3 (B) by flow cytometry.

[3] = test system: U138 cells; assay: Clonogenic survival of U138 cells; format: cell-based, human; conditions: 1 nM FdUMP[10] and/or 10 nM AZD7762, drugs removed after 72 h, colonies counted 10 days post-treatment
Method: 500-2000 U138 cells were seeded into 60 mm dishes and treated with 1 nM FdUMP[10] (F1) and/or 10 nM AZD7726 (A2) and the drugs were removed after 72 h. Cells were fixed and stained with violet blue and colonies were counted using a colony counter 10 days post-treatment. […] The results are consistent with FdUMP[10]AZD7762 being synergistic at decreasing the clonogenicity of U138 cells.

[4] = test system: primary cortical neurons; assay: Viability of primary cortical neuronal cultures; conditions: 1 μM, 72 hours in culture
Method: Cortical neuronal cultures were prepared using previously described protocols. […] The tissue was further dissected into smaller pieces. After washes in cold PBS without Ca^+2/Mg^+2, tissue was incubated in 0.05% trypsin in PBS without Ca^+2/Mg^+2. Tissue was then dissociated in NB media using a blue-tip pipette. Dissociated cells were layered onto a 4% BSA cushion to remove debris. Cells were plated in NB media at a density 4×10^4 cells/well in a 24 well dish. After 24 hours, media was removed and replaced with fresh media with or without 5FU or F10. After 72 hours in culture, surviving neurons were counted. To be counted a cell had to have a phase-bright cell body and at least one neurite that was at least two times the diameter of the soma. Results are expressed as percent control (Mean±SD) where control represents cultures without the addition of 5FU or F10 (n=4 individual experiments with at least two wells per condition). Statistical significance was determined with a one-way ANOVA followed by the Bonferroni post-hoc test.

[5] = test system: primary astrocyte cultures; assay: Viability of primary astrocyte cultures; conditions: same doses as for neurons (up to 1 μM)
[6] = test system: SF-268; conditions: at or below lowest concentration evaluated; cited from earlier work
[7] = Dose-finding / tolerability upon i.c. administration; format: in vivo, nude mice
Text: The nanoscale size of F10 (length ˜3 nm), as well as its multiple negative charges, make penetration of the BBB following systemic delivery an inefficient process. Conversely, intra-cranial (i.c.) administration of F10 is expected to result in high local concentrations that may be therapeutically beneficial, particularly in light of the relatively strong cytotoxicity towards GBM cells and the minimal toxicity of F10 towards primary cortical neurons (FIG. 3A). Dose-finding studies in nude mice were performed to identify doses that were sufficiently well-tolerated to be evaluated in efficacy studies. F10 was dissolved in PBS and administered i.e. using an Alzet osmotic mini-pump over a 7 day period. Vehicle-only served as a control. […] These dose levels are considerably lower than those used in recent leukemia studies in which F10 was administered systemically (200 mg/kg qodx4) (Pardee et al., Unique dual targeting of thymidylate synthase and topoisomerase 1 by FdUMP[10] results in high efficacy against AML and low toxicity. Blood. 2012; 119(15):3561-3570), consistent with F10 being retained within the BBB upon i.c. administration.

[8] = test system: SF-295; conditions: at or below lowest concentration evaluated; cited from earlier work
[9] = molecular target: T1, thymidylate synthase (TS) (Homo sapiens, UniProt P04818); assay: TS catalytic activity assay in lysates of treated GBM cells; format: cell-based; conditions: G48a, U-251 MG and SNB-19 GBM cells; F10 10^−6 and 10^−5 M, raltitrexed 10^−6 M
T1 construct: harvested, and lysed by freeze-fracturing; Following centrifugation of cell lysates, supernatants were assayed for protein content and TS catalytic activity; endogenous in cells; host or cells: G48a, U-251 MG and SNB-19 GBM cells
T1 sequence (P04818 2-313 limits assumed): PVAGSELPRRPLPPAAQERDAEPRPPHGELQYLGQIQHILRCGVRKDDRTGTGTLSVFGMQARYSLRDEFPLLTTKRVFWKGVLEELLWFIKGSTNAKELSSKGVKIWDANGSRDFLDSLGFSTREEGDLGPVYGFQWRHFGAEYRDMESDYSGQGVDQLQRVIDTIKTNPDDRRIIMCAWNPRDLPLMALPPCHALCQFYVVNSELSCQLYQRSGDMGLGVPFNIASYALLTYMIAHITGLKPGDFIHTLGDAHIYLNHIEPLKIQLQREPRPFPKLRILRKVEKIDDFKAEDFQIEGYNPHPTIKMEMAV
Method: TS assays were conducted using procedures similar to those previously described. (Gmeiner et al., Enhanced DNA-directed effects of FdUMP[10] compared to 5FU. Nucleosides Nucleotides Nucleic Acids. 2004; 23(1-2):401-410.) GBM cells were plated at a density of 1.5×10^6 cells in 100 mm^2 plates. Cells were grown overnight in RPMI 1640 medium with 10% FBS. Either 5FU (Sigma), F10, or raltitrexed were then added at the indicated concentrations and the cells were incubated for 8, 16, 24, or 48 hrs, harvested, and lysed by freeze-fracturing. Following centrifugation of cell lysates, supernatants were assayed for protein content and TS catalytic activity as previously described. (Gmeiner et al., Enhanced DNA-directed effects of FdUMP[10] compared to 5FU. Nucleosides Nucleotides Nucleic Acids. 2004; 23(1-2):401-410.)

[10] = molecular target: T2, DNA Topoisomerase 1 (Top1) cleavage complex (Homo sapiens, UniProt P11387); assay: In vivo complex of enzyme (ICE) bioassay; format: cell-based; conditions: SNB-19 and U-251 MG cells
T2 construct: endogenous in cells; host or cells: SNB-19 and U-251 MG GBM cells
T2 sequence (P11387 2-765 limits assumed): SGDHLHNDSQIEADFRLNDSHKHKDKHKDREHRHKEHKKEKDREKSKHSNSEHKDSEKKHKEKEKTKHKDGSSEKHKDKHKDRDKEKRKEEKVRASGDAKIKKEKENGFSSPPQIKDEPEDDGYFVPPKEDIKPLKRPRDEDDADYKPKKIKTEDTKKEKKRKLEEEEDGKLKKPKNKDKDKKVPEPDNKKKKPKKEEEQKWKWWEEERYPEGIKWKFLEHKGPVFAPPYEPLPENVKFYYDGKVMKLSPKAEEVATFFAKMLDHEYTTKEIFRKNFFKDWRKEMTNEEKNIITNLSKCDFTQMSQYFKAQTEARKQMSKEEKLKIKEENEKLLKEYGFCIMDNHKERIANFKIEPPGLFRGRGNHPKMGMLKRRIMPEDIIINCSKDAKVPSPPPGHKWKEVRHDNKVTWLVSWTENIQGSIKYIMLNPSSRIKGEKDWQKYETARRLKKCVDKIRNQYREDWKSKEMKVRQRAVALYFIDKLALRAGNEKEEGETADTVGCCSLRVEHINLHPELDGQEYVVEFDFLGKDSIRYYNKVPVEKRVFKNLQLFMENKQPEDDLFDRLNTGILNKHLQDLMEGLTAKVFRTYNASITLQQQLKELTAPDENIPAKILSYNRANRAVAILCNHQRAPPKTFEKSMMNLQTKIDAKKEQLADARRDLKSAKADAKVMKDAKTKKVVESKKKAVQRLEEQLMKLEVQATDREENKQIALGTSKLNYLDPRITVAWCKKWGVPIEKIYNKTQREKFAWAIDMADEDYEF
Method: G48a and primary explant cells derived from patient GBM tumors were grown in RPMI 1640 (Lonza, Rockland, Me.) supplemented with 10% FBS and glucose (2 g/L). G48a-luciferase cells were produced by lentiviral infection using a GFP-tagged vector. Cells were selected using blastocydin (10 μg/mL). U-251 MG and SNB-19 cells were obtained from ATCC and grown in RPMI 1640 (Lonza, Rockland, Me.) supplemented with 10% FBS and glucose (2 g/L). U-251 MG cells were grown in DMEM supplemented with 10% FBS and non-essential amino acids. In vivo complex of enzyme (ICE) bioassays were completed using methods similar to those previously described. (Liao et al., A novel polypyrimidine antitumor agent FdUMP[10] induces thymineless death with topoisomerase I-DNA complexes. Cancer Res. 2005; 65(10:4844-4851) GBM cells were incubated with F10 at the indicated concentrations for 0-48 hrs. Thymidine (Thy) rescue was accomplished by adding Thy at 80 μM, as the 20 μM dose previously described (Wang et al., Mechanisms of acquired chemoresistance to 5-fluorouracil and tomudex: thymidylate synthase dependent and independent networks. Cancer Chemother Pharmacol. 2007; 59(6):839-845) was not effective for rescue. Cell samples were counted and equalized for cell number. Primary antibody (mouse anti-human DNA Top I, BD Pharmingen) was added at 1:500 dilution. Secondary antibody (Cell Signaling) was used at 1:1000. […]

[11] = test system: U-251 MG; conditions: cited from earlier work
[12] = test system: G48a cells; assay: Cytotoxicity (cell viability) towards G48a GBM cells; format: cell-based, human; conditions: G48a cell line; FIG. 1C
[13] = test system: CNS malignancies included in the NCI 60 cell line panel; assay: NCI 60 cell line screen, CNS malignancies of the panel; format: cell-based, human; conditions: several GBM cell lines
[14] = test system: CNS malignancies included in the NCI 60 cell line panel; conditions: all CNS malignancies included in the NCI 60 cell line panel; cited from earlier work
[15] = test system: SNB-19; conditions: cited from earlier work
[16] = test system: SF-539; conditions: at or below lowest concentration evaluated; cited from earlier work
[17] = test system: G48a orthotopic xenografts
Method: G48a-luc were suspended into Hanks Balanced Salt Solution to a density of 10^5 cells/μL. Nude (nu/nu) 7-week old mice were obtained from NCI. Mice were anesthetized using a ketamine/xylazine mixture and placed on a small-animal, head-holding frame. A scalp incision was made to determine the drill-hole location, 1 mm right and 1 mm anterior to lambda. A 27-gauge needle attached to a 10 mL sterile Hamilton syringe (Hamilton, Reno, Nev.) was stereotactically inserted 3 mm below the dural surface and cells were injected into the deep white matter of the posterior thalamus. Cells were injected in a total of 5 μL over a five minute period. The syringe was removed two minutes after the injection was completed, retracting it at a rate of 0.5 mm per minute. After removal of the syringe, the hole was covered with cranio-plastic liquid. Animals were sutured, allowed to recover on a heating pad, and returned to their cages. Animal weight and behavior was monitored every three days.
Starting on day 21 after tumor cell implantation, mice were treated by intra-cerebral (i.c.) infusion (0.5 μL/h) of F10 at 3 concentrations (80, 120 and 160 mg/kg) for a duration of 7 days. Drug was prepared in phosphate buffered saline. Osmotic pumps (ALZET® model 1007D, Alzet, Cupertino, Calif.) were primed in sterile saline overnight at 37° C. according to manufacturer's specification. The pumps were then coupled to brain infusion kits (ALZET® model 3). Animals were anesthetized using a ketamine/xylazine mixture and placed on a small-animal head holding frame, and the location of initial injection (1 mm right and 1 mm anterior to lambda) was retraced. The cannula was then inserted to a depth of 3 mm and secured with cranio-plastic adhesive and the pump was placed subcutaneously between the shoulder blades. Animals were sutured, allowed to recover and evaluated for any motor deficits resulting from the surgical procedure. […] Animals were euthanized 24 hours post-treatment when body weight loss was above 12% or when behavior prevented normal activity.
Animals received an intraperitoneal (i.p.) injection of D-luciferin (150 mg/kg, stock solution 15 mg/mL in sterile PBS, Goldbio, St. Louis, Mo.), After 10 min, animals were anesthetized with isofluorane until non-responsive, and then placed in the imaging chamber. Three bioluminescent imaging acquisitions were collected at different exposure times (10, 60, 300 sec). Mice were allowed to recover and returned to their cages. Data were analyzed based on total photon flux emission (photons) in the region of interest over the intracranial space using Living Image software (Xenogen Corp.).
Animals were deeply anesthetized with an i.p injection of ketamine/xylazine and fixed by transcardial perfusion through the heart with PBS (pH=7.4) followed by 4% paraformaldehyde in PBS (PFA). Brains were removed and fixed overnight in 4% PFA. Brains were then cryoprotected in 30% sucrose-PBS at 4° C. for 2-3 days, Brains were embedded in tissue-freezing medium (Triangle Biomedical Sciences, Durham, N.C.) and sections were cut to a thickness of 10 μm, thawed onto SuperFrost Plus slides (Fisher, Pittsburgh, Pa.) and kept at −20° C. until further processing. Sections from vehicle- and F10-treated animals were thawed prior to exposure with primary antibodies. Endogenous peroxidase activity and non-specific biotin was quenched with Peroxide Blocking Kit and Biotin Blocking Kit, respectively (ScyTek Laboratories, Logan, Utah). Antigen retrieval was performed with 10 mM sodium citrate buffer, pH 6.0, by microwaving for 5 min. Slides were blocked with SuperBlock (ScyTek) and incubated with polyclonal EphA2 antibody (R&D Systems, Minneapolis, Minn.) overnight at 4° C.

[18] = with irradiation 6 Gy, 1 nM FdUMP[10] 9 h and/or 10 nM AZD7762 1 h before, 24 h post-irradiation

## NC(=O)Nc1cc(-c2cccc(F)c2)sc1C(=O)N[C@H]1CCCNC1 [AZD7762, reference compound]
[1]
  radiosensitization: neither FdUMP[10] nor AZD7762 are appreciably radiosensitizing
[2]; [18]
  cleaved caspase 3 (apoptosis): do not result in significant percent of cleaved caspase 3
[2]; without irradiation, 10 nM AZD7762
  cleaved caspase 3 (apoptosis): do not result in significant percent of cleaved caspase 3
[3]
  survival fraction: 0.80

## O=c1[nH]cc(F)c(=O)[nH]1 [5FU, 5-fluorouracil]
[4]
  decreased viability for cortical neurons relative to control: approximately 50%
[5]
  viability of primary astrocyte cultures, treated vs control: no apparent differences in viability

## FdUMP[10] [F10]
[6]
  GI50: ≤ 5 nM
[7]; i.c., osmotic mini-pump over 7 days
  well-tolerated dose: up to 200 mg/kg
[7]; mouse, in vivo
  appearance and behaviour of mice: light-sensitive, with eyes partially closed, and were more lethargic than mice treated with vehicle-only
[8]
  GI50: ≤ 5 nM
[1]
  radiosensitization: neither FdUMP[10] nor AZD7762 are appreciably radiosensitizing
[9]
  TS inhibition: inhibited TS completely
[10]
  Top1CC formation: induces Top1CC formation
[11]
  GI50: 115 nM
[2]; 1 nM FdUMP[10] and/or 10 nM AZD7762
  DNA content / cell cycle: causes G2-arrest
[2]; [18]
  cleaved caspase 3 (apoptosis): result predominantly in apoptotic cells
[3]
  survival fraction: 0.84
[12]
  pIC50: ~6.00
[13]
  differential sensitivity for F10 relative to 5FU: ~10,000 fold
[14]
  GI50: < 1000 nM
[15]
  GI50: 170 nM
[16]
  GI50: ≤ 5 nM
[17]; 80 mg/kg
  EphA2 staining, tumor-bearing side: only trace levels of EphA2 positive staining
[17]; 120 mg/kg
  EphA2 staining, tumor-bearing side: no EphA2 staining
[17]; 120 mg/kg i.c. over 7 days, p<0.01
  mean tumor volumes (%-change in photon emission): significantly decreased relative to control
[17]; 120 mg/kg vs 80 mg/kg
  extent of tumor cell necrosis (H&E): greater tumor cell necrosis than the 80 mg/kg dose
[17]; 160 mg/kg i.c. over 7 days
  luminescent signal (IVIS imaging): did not display decreased lumincescent signal
  treatment effect by histology: significant treatment effect
[17]; 80 and 120 mg/kg i.c. over 7 days
  tumor regression (IVIS imaging): significant tumor regression
[17]; 80 or 120 mg/kg i.c. over 7 days
  necrosis in tumor tissue (H&E): extensive areas of necrosis selectively within tumor tissue
[17]; mouse, in vivo
  necrosis in contralateral side of brain (H&E): no observable necrosis

## Cc1nc2ccc(CN(C)c3ccc(C(=O)N[C@@H](CCC(=O)O)C(=O)O)s3)cc2c(=O)[nH]1 [Raltitrexed, reference compound]
[9]
  TS inhibition: effectively inhibited TS
